Activity calls are given as the source filed them.
What was measured:
[1] = target: T1, RNA-binding protein pos-1 (Caenorhabditis elegans, UniProt G5EF15); assay: inhibitors of POS-1/mex-3 RNA binding, dose response, biochemical, fluorescence polarization (AID 1964);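 further: purified POS-1 fused to maltose binding protein made in E. coli; potency of compounds blocking POS-1 binding to fluorescent RNA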
T1 sequence (G5EF15 whole entry): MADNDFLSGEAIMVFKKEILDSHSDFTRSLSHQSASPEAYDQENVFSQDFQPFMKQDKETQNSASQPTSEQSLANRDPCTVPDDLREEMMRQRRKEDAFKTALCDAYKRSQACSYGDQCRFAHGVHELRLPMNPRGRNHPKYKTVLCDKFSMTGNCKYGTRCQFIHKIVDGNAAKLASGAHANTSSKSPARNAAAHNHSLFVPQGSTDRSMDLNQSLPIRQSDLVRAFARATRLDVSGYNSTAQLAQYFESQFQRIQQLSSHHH

[2] = target: T2, Zinc finger protein mex-5 (Caenorhabditis elegans, UniProt Q9XUB2); assay: MEX-5/TCR-2 RNA interaction inhibitors, dose response, biochemical, C. elegans, fluorescence polarization (AID 1960)
T2 sequence (Q9XUB2 whole entry): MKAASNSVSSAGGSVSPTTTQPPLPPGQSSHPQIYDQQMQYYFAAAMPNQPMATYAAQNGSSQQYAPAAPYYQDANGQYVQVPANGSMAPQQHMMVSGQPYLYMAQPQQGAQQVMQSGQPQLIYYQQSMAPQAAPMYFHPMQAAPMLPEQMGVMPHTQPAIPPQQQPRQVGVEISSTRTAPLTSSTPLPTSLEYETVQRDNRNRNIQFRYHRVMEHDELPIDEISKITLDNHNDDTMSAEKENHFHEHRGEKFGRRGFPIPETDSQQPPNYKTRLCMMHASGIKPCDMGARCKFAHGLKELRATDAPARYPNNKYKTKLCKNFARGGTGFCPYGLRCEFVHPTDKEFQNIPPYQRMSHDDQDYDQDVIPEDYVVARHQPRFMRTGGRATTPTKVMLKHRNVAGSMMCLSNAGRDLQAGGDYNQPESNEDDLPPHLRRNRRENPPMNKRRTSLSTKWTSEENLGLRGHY

NS3 = NS3 (Hepatitis C virus, UniProt A3EZJ3); assay: PubChem AID 2173; set-up: species or system Hepacivirus hominis
Chain of NS3 (A3EZJ3 whole entry): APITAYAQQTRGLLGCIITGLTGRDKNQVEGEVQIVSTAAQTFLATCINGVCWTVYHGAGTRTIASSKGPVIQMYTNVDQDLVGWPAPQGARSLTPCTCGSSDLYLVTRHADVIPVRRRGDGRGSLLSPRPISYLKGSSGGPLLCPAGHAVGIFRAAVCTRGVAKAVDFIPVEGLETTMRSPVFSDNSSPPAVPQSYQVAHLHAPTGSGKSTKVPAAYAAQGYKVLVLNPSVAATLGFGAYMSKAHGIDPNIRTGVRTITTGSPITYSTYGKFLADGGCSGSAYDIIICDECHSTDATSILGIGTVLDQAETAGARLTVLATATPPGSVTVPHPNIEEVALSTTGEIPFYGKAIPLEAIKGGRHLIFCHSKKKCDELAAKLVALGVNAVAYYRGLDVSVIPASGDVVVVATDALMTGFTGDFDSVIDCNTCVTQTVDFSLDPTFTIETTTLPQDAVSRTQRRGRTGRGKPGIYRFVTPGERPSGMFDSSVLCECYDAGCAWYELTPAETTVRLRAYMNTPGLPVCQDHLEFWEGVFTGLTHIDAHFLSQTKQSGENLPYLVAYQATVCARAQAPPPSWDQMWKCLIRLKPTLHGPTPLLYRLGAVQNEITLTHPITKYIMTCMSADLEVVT

[3] = THP-1 cell cytotoxicity, dose response, cytotoxicity control for non-replicating M. tuberculosis project (AID 489025); assay type: functional
[4] = target: T3, Heat shock factor protein 1 (Mus musculus, UniProt P38532); assay: HSF1 potentiators in luciferase reporter cells, confirmation, cell-based, NIH3T3, luminescence, dose retest (AID 435004); assay type: functional;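 further: stress induced by proteasome inhibitor MG132 added 30 min after compound; luciferase reporter driven by HSF1 response element in NIH3T3 cells; actives raise luminescence as potentiators of the MG132 stress response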
T3 sequence (P38532 whole entry): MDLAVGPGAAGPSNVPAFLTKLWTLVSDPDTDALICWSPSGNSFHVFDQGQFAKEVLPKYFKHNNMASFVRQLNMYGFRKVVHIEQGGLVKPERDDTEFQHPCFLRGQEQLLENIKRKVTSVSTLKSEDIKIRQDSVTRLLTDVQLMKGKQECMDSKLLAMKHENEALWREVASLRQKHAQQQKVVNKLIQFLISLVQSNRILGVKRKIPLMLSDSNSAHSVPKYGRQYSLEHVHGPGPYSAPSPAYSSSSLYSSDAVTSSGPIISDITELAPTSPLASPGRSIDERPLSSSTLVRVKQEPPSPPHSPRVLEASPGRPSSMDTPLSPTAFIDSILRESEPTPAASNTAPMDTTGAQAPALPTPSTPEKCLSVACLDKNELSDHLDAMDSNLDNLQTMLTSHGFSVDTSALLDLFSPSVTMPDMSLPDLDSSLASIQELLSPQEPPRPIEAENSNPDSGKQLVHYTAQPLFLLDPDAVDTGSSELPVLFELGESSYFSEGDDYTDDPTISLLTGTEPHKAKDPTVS

cells = assay type: functional
Vero = assay: cells; assay type: functional; conditions: Chlorocebus sabaeus
[5] = target: T4, Alkaline phosphatase, tissue-nonspecific isozyme (Homo sapiens, UniProt P05186)
T4 sequence (P05186 whole entry): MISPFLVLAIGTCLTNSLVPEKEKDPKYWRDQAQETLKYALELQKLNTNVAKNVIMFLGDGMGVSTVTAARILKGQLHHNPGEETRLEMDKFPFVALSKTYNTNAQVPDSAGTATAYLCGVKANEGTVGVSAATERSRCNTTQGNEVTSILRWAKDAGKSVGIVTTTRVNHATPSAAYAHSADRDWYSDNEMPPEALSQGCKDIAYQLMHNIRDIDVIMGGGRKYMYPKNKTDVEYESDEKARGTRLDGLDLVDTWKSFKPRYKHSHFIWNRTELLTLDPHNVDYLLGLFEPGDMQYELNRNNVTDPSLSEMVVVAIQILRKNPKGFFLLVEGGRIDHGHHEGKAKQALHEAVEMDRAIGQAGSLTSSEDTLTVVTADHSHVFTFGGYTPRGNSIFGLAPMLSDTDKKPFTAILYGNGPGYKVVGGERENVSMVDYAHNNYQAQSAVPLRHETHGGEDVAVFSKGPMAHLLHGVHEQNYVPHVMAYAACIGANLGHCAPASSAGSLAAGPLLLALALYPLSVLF

Staphylococcus aureus = assay: Inhibitors of Bacterial Quorum Sensing Structure Activity Relationship (SAR) Analysis: Dose Response Assay. [Related pubchem assays: 700, 527 ]; assay type: functional, organism-based
[6] = target: T5, Eukaryotic translation initiation factor 4H (Homo sapiens, UniProt Q15056); assay: human eIF4H binding inhibitors, primary screen, translation initiation inhibitor project, biochemical, uHTS, fluorescence polarization (AID 2012)
[7] = target: T6, Polyadenylate-binding protein 1 (Homo sapiens, UniProt P11940); assay: PABP poly(A) RNA binding inhibitors, primary screen, biochemical, fluorescence polarization, uHTS (AID 2014)
T6 sequence (P11940 whole entry): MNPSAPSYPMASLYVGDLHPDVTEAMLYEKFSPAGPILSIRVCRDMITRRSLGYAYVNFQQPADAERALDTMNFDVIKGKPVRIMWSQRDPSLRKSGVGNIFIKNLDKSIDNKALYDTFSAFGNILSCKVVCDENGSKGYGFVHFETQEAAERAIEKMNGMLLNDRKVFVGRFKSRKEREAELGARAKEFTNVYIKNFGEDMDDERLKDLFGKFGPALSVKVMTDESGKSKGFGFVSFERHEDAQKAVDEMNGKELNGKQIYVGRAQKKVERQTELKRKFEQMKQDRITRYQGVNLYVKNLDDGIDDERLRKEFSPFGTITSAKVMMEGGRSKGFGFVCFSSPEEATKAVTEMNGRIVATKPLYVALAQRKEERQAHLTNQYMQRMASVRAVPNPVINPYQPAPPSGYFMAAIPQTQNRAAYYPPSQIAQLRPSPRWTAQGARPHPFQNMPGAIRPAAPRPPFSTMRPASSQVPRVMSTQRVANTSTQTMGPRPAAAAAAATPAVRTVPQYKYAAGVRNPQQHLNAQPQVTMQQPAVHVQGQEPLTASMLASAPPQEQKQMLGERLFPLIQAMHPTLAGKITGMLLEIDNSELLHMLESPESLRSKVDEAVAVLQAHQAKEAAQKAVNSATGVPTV

[8] = target: T5, Eukaryotic translation initiation factor 4H; assay: eIF4H inhibition in translation initiation, SAR follow-up (AID 435011); assay type: functional
[9] = target: DNA dC->dU-editing enzyme APOBEC-3A (Homo sapiens, UniProt P31941); assay: Dose Response confirmation of small molecule APOBEC3A DNA Deaminase Inhibitors via a fluorescence-based single-stranded DNA deaminase assay. [Related pubchem assays (depositor defined):AID493011, AID493024]; assay type: functional
Chain of DNA dC->dU-editing enzyme APOBEC-3A (P31941 whole entry): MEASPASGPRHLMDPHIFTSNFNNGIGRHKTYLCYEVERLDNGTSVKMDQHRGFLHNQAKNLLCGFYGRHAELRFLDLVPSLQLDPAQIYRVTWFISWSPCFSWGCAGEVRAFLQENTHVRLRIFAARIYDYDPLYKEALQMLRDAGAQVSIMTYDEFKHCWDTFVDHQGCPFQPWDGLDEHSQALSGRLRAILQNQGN

[10] = target: T6, Polyadenylate-binding protein 1; assay: PABP inhibition in translation initiation, SAR follow-up (AID 435018); assay type: functional
[11] = target: DNA dC->dU-editing enzyme APOBEC-3G (Homo sapiens, UniProt Q9HC16); assay type: functional;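 further: Dose-response counterscreen measuring inhibition of APOBEC3G DNA deaminase activity, run while confirming APOBEC3A inhibitors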
Chain of DNA dC->dU-editing enzyme APOBEC-3G (Q9HC16 whole entry): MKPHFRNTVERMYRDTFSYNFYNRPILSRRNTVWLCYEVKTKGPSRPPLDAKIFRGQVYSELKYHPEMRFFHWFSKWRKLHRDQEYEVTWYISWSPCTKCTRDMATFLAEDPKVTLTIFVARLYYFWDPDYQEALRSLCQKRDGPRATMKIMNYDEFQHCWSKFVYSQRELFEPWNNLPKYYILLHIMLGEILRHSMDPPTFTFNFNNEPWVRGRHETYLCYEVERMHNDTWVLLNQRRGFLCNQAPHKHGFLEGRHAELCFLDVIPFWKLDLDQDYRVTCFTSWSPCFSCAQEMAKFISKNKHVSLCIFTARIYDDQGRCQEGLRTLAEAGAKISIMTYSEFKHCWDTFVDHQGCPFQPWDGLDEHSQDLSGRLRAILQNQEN

## COc1ccc(N2C(=O)NC(=O)/C(=C/c3ccc([N+](=O)[O-])s3)C2=O)cc1
[1]
  EC50: > 300 µM (not active)
[2]
  EC50: 24.3 µM (active)
NS3
  IC50: 9.42 µM (active)
[3]
  CC50: 38.5 µM (active)
[4]
  EC50: 8.55 µM (active)
cells
  IC50: 26.7 µM (active)
Vero
  CC50: > 25 µM (active)

## O=C1CC(N2CCN(c3cccc(C(F)(F)F)c3)CC2)C(=O)N1c1ccc(F)cc1 (stereo not given)
[5]
  EC50: > 100 µM (not active)

## CC1CCN(C(C(=O)Nc2ccc(C(C)C)cc2)c2ccc3c(c2)OCO3)CC1 (stereo not given)
Staphylococcus aureus
  IC50: 0.717 µM (active)

## Cc1ccc(NC(=O)C2CCN(C(=O)c3cccs3)CC2)c(C)c1
[6]
  IC50: > 100 µM (inactive)
[7]
  IC50: 6.51 µM (active)
[8]
  IC50: 47.6 µM (active)
[9]
  IC50: 4.37 µM (active)
[10]
  IC50: 4.95 µM (active)
[11]
  IC50: 6.56 µM (active)
